The results in this text go back to patent US20250282799A1, “SUBSTITUTED PYRIDO[4,3-d]PYRIMIDINES AS KRAS MODULATORS” (Alterome Therapeutics, Inc., priority 2023, published 2025).

Some results are limits rather than exact numbers.

As a reminder, the IC50 is the concentration at which inhibition is half-maximal. Read a low IC50 as higher potency.

The experiment concerns KRAS G12V dependent lung adenocarcinoma cell line, NCI-H441. Kind of experiment: Cellular pERK (Thr202/Tyr204) FRET/HTRF assay. In kind it is cell-based. The note with it: Homo sapiens, NCI-H441, pERK HTRF, NCI-H441 cells (KRAS G12V). An outline of the steps: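 NCI-H441, overnight plating → cpd 1 hr, 37 °C/5% CO2; DMSO neg ctrl. Lyse (phosphatase inhibitors), add donor/acceptor Abs, RT incubation, HTRF read. IC50 by curve fit.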
On the technique in general: In TR-FRET formats the signal depends on donor and acceptor labels being close together.
Molecule `[2H]C([2H])(Oc1nc(N2CCCC[C@H]3[C@H](F)[C@H]32)c2cnc(-c3cc(N)cc4cc(F)c(F)c(C#C)c34)c(F)c2n1)[C@@]12CCCN1C[C@H](F)C2` [Example 16, 5-Ethynyl-6,7-difluoro-4-(8-fluoro-4-((1S,7R,8S)-8-fluoro-2-azabicyclo[5.1.0]octan-2-yl)-2-(((2R,7aS)-2-fluorotetrahydro-1H-pyrrolizin-7a(5H)-yl)methoxy-d2)pyrido[4,3-d]pyrimidin-7-yl)naphthalen-2-amine] displayed a 50% inhibitory concentration (IC50) of under 50 nM.

`[2H]C([2H])(Oc1nc(N2CCOC[C@H]3[C@H](F)[C@H]32)c2cnc(-c3cc(N)cc4cc(F)c(F)c(C#C)c34)c(F)c2n1)[C@@]12CCCN1C[C@H](F)C2` [Example 28, 5-Ethynyl-6,7-difluoro-4-(8-fluoro-4-((1S,7S,8S)-8-fluoro-5-oxa-2-azabicyclo[5.1.0]octan-2-yl)-2-(((2R,7aS)-2-fluorotetrahydro-1H-pyrrolizin-7a(5H)-yl)methoxy-d2)pyrido[4,3-d]pyrimidin-7-yl)naphthalen-2-amine] registered a half-inhibitory concentration (IC50) of under 50 nM.

In turn, `[2H]C([2H])(Oc1nc(N2CCCC[C@H]3[C@H](F)[C@H]32)c2cnc(-c3cc(N)cc4ccc(F)c(C#C)c34)c(F)c2n1)[C@@]12CCCN1C[C@H](F)C2` [Example 82, 5-Ethynyl-6-fluoro-4-(8-fluoro-4-((1S,7R,8S)-8-fluoro-2-azabicyclo[5.1.0]octan-2-yl)-2-(((2R,7aS)-2-fluorotetrahydro-1H-pyrrolizin-7a(5H)-yl)methoxy-d2)pyrido[4,3-d]pyrimidin-7-yl)naphthalen-2-amine] registered an IC50 of under 50 nM.

`[2H]C([2H])(Oc1nc(N2CCOC[C@H]3[C@H](F)[C@H]32)c2cnc(-c3cc(N)cc4ccc(F)c(C#C)c34)c(F)c2n1)[C@@]12CCCN1C[C@H](F)C2` [Example 87, 5-Ethynyl-6-fluoro-4-(8-fluoro-4-((1S,7S,8S)-8-fluoro-5-oxa-2-azabicyclo[5.1.0]octan-2-yl)-2-(((2R,7aS)-2-fluorotetrahydro-1H-pyrrolizin-7a(5H)-yl)methoxy-d2)pyrido[4,3-d]pyrimidin-7-yl)naphthalen-2-amine]: the IC50 is under 50 nM.
